We go through 21 molecules from patent US10688080B2, “Compositions, methods of use, and methods of treatment” (priority 2016, dated 2020).

The structures appear in SMILES notation.

In assay [1] the target is T1, KPC-2 (Klebsiella pneumoniae, UniProt Q9F663).
T1 construct: made in house; host or cells: bacteria, IPTG-induced
In words: Steady-state kinetic nitrocefin hydrolysis inhibition, KPC-2. The assay is classed as biochemical. The procedure:
For His tag KPC-2 beta-lactamase, bacteria were grown overnight at 30 C with shaking in 50 mL LB broth supplemented with 50 μg/mL kanamycin. Two liters of LB broth supplemented with 50 μg/mL kanamycin, 200 mM sorbitol, and 5 mM betaine were each inoculated with 10 mL of overnight bacterial culture. Cultures were then grown at 37 C until an optical density at 600 nm (OD600) of 0.6-0.7. Protein expression was then initiated by the addition of IPTG (final concentration 0.5 mM), followed by growth for 16 hr at 20 C. Cells were pelleted by centrifugation and stored at −80 C until further use. The his tag KPC-2 beta-lactamase was purified by nickel affinity chromatography and gel filtration. Briefly, the cell pellets were thawed and re-suspended in 40 mL of buffer A (20 mM Tris-HCl pH 8.0, 300 mM NaCl, 20 mM imidazole) with one complete protease inhibitor cocktail tablet (Roche) and disrupted by sonication, followed by ultracentrifugation to clarify the lysate. After ultracentrifugation, the supernatant was passed through a 0.22 μm filter before loading onto a 5 mL HisTrap HP affinity column (GE Healthcare Life Sciences, USA) pre-equilibrated with buffer A. His tag KPC-2 was eluted by a linear imidazole gradient (20 mM to 500 mM). Fractions were analyzed by SDS-PAGE. Fractions containing his tag KPC-2 were concentrated using a 10 k NMWL Amicon Ultra-15 Centrifugal Filter Unit. Concentrated his tag KPC-2 was then loaded onto a superdex 75 gel filtration column (GE Healthcare Life Sciences) pre-equilibrated with 20 mM Tris-HCl pH 8.0, 300 mM NaCl. Protein concentration was determined by absorbance at 280 using an extinction coefficient of 39,545.
(§1) Steady-state kinetic parameters were determined by using a Biotek Cytation 5 Cell Imaging Multi-Mode Reader. For KPC-2 and CTX M-14, each assay was performed in 100 mM Tris-HCl pH 7.0, 0.01% Triton X-100 at 37 C. Vmax and Km were determined from initial steady-state velocities from nitrocefin read at a wavelength of 486 nm. The kinetic parameters were obtained using the non-linear portion of the data to the Henri-Michaelis (equation 1) using Gera version 2.07. V=Vmax[S]/(Km+[S]) (Equation 1)
(§2) IC50, defined as the inhibitor concentration that results in a 50% reduction of nitrocefin (20 μM for KPC-2 and 50 μM for CTX M-14) hydrolysis was determined by measurements of initial velocities after mixing 1 nM of KPC-2 or CTX M-14 with increasing concentrations of inhibitors. The inhibition constant (Ki) was calculated according to equation 2: Ki=IC50/([S]/Km+1) (Equation 2)

In assay [2] the target is T2, NDM-1 (Klebsiella pneumoniae, UniProt C7C422).
T2 construct: SUMO tag (cleaved yes); made in house; host or cells: bacteria, IPTG-induced
T2 sequence (C7C422 29-270, looked up, species assumed): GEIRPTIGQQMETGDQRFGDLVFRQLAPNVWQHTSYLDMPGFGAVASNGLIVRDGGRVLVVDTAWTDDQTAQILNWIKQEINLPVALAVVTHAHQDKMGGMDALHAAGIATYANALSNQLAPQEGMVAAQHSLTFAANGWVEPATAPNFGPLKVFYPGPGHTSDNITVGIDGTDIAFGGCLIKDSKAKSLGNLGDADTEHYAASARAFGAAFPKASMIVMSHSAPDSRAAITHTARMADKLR
In words: Steady-state kinetic nitrocefin hydrolysis inhibition, NDM-1. The assay is classed as biochemical. To be noted: for Ki: nitrocefin 10 μM, 1 μM ZnSO4, Ki=IC50/([S]/Km+1). The protocol: For sumo tag NDM-1 metallo-beta-lactamase, bacteria were grown overnight at 30 C with shaking in 50 mL LB broth supplemented with 100 μg/mL ampicillin. Two liters of LB broth supplemented with 100 μg/mL ampicillin were each inoculated with 10 mL of overnight bacterial culture. Cultures were then grown at 37 C until an optical density at 600 nm (OD600) of 0.6-0.7. Protein expression was then initiated by the addition of IPTG (final concentration 0.5 mM), followed by growth for 16 hr at 20 C. Cells were pelleted by centrifugation and stored at −80 C until further use. The sumo tag NDM-1 beta-lactamase was purified by nickel affinity chromatography and gel filtration. Briefly, the cell pellets were thawed and re-suspended in 40 mL of buffer A (20 mM HEPES pH 7.4, 0.5 M NaCl, 20 mM imidazole) with one complete protease inhibitor cocktail tablet (Roche) and disrupted by sonication, followed by ultracentrifugation to clarify the lysate. After ultracentrifugation, the supernatant was passed through a 0.22 μm filter before loading onto a 5 mL HisTrap HP affinity column (GE Healthcare Life Sciences, USA) pre-equilibrated with buffer A. Sumo tag NDM-1 was eluted by a linear imidazole gradient (20 mM to 500 mM). Fractions were analyzed by SDS-PAGE. Fractions containing sumo tag NDM-1 were buffer exchanged into 20 mM HEPES pH 7.0, 100 mM NaCl. Cleavage of the sumo tag was then carried out with ULP1 protease overnight at room temperature and then concentrated using a 10 k NMWL Amicon Ultra-15 Centrifugal Filter Unit. The sample was then loaded back onto a nickel affinity column and the flow through was collected, containing the untagged NDM-1. NDM-1 was concentrated and loaded onto a gel filtration column (GE Healthcare Life Sciences) pre-equilibrated with 20 mM HEPES pH 7.0, 100 mM NaCl. Protein concentration was determined by absorbance at 280 using an extinction coefficient of 27,960.
as §1, §2
For NDM-1, the procedures were the same as above except the assay was performed in 100 mM Tris-HCl pH 7.0, 1 μM ZnSO4, 0.01% Triton X-100. In addition, a nitrocefin concentration of 10 μM was used.

Assay [3] concerns the target OXA-48 (Klebsiella pneumoniae, UniProt Q6XEC0). In words: Steady-state kinetic β-lactamase inhibition, OXA-48. Format: biochemical. To be noted: read-out: OXA-48 % inhibition at stated concentration.
Assay [4] has as its target CTX-M14 (Escherichia coli, UniProt Q9L5C7). Put plainly: Steady-state kinetic nitrocefin hydrolysis inhibition, CTX-M14. Format: biochemical. To be noted: for Ki: nitrocefin 50 μM, 1 nM enzyme, Ki=IC50/([S]/Km+1). The protocol: as §1, §2
Assay [5] deals with SHV-2 (Klebsiella pneumoniae, UniProt P0A9Z8). Put plainly: Steady-state kinetic β-lactamase inhibition, SHV-2. Format: biochemical.
SHV-2, sequence (P0A9Z8 22-286): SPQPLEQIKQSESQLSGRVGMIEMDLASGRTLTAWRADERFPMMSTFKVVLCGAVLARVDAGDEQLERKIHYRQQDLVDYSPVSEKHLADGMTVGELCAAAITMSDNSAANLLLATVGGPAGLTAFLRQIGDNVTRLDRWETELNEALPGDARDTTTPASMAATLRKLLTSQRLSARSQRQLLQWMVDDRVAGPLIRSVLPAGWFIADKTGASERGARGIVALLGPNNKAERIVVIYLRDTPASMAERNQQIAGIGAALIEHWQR
In assay [6] the test system is BL21(DE3) E. coli expressing KPC-2. Put plainly: MIC studies, synergy with imipenem (broth microdilution). The assay is classed as cell-based. To be noted: Escherichia coli, 24 h, read-out: MIC of imipenem. The procedure:
Compounds were tested for synergy with the carbapenem antibiotic, imipenem, against BL21(DE3) E. coli expressing KPC-2. MIC values were determined with the Mueller-Hinton broth microdilution method. To test for inhibitory activity, compounds were dissolved in DMSO and dilutions were carried out using LB broth. Compounds were test at 100 μM with increasing concentrations of imipenem. […] After inoculation, the plates are incubated at 37 C for 24 hours. The MIC of the compounds are then determined visually.
(Broth dilution looks for growth in wells or tubes with falling amounts of substance.)

T1 sequence (Q9F663 25-293 limits assumed): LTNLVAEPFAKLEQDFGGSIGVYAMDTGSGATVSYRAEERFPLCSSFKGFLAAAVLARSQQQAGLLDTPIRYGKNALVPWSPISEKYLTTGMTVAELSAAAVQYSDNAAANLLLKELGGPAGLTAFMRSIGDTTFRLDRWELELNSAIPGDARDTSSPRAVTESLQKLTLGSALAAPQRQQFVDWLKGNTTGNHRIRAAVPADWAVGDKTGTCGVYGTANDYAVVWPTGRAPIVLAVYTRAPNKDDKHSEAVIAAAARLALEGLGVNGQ
CTX-M14, sequence (Q9L5C7 29-291, species assumed): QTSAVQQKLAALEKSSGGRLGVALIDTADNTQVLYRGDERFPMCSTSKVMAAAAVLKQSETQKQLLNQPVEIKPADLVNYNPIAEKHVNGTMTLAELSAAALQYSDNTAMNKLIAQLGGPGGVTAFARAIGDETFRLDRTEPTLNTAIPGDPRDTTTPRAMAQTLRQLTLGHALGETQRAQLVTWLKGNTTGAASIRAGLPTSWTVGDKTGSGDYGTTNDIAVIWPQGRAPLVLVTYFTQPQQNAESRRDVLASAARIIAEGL
OXA-48, sequence (Q6XEC0 23-265 limits assumed): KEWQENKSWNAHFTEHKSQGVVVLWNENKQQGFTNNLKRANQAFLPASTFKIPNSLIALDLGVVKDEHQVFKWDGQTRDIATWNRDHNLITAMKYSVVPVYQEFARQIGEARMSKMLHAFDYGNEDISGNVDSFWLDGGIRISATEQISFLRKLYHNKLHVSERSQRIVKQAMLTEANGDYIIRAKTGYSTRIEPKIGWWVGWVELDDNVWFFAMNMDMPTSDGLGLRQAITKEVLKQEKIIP

Take `O=C(Nc1nnn[nH]1)C1CN(C(=O)c2cccc(C(F)(F)F)c2)c2ccccc21` (centres unmarked) [Compound 2, N-(1H-tetrazol-5-yl)-1-(3-(trifluoromethyl)benzoyl)indoline-3-carboxamide]: the Ki (usually a measure of affinity in units of concentration, obtained from inhibition or displacement) was determined as 1.2 µM in assay [1] and 958 µM in assay [2].

Regarding `O=C(Nc1nc(C(=O)Nc2nnn[nH]2)c(-c2ccccc2)s1)c1nccs1` [Compound 6, N-(4-((1H-tetrazol-5-yl)carbamoyl)-5-phenylthiazol-2-yl)thiazole-2-carboxamide], in assay [1], the affinity, expressed as Ki, was 26 µM. In addition, the inhibition at 4800 µM in assay [3] was determined as 50%.

Consider `O=C(Nc1nnn[nH]1)[C@@H]1CCCN(S(=O)(=O)c2cccc(C(F)(F)F)c2)C1` [Compound 9, (R)—N-(1H-tetrazol-5-yl)-1-((3-(trifluoromethyl)phenyl)sulfonyl)piperidine-3-carboxamide], for which the inhibition constant Ki worked out at 243 µM in assay [4] and 78 µM in assay [1]. Besides, in assay [3], the inhibition at 4800 µM was found to be 20%.

As for `O=C(N[C@H]1CCCCN(c2nnn[nH]2)C1=O)c1cc(C(F)(F)F)cc2nc[nH]c12.O=CO` [Compound 21, (S)—N-(2-oxo-1-(1H-tetrazol-5-yl)azepan-3-yl)-5-(trifluoromethyl)-1H-benzo[d]imidazole-7-carboxamide formate], the inhibition constant Ki in assay [4] was found to be 236 µM; in assay [5], 60 µM. Further, the “KPC-2 % inhibition at stated concentration” value (“KPC-2 % inhibition” for short) in assay [1] (at 1600 (uM)) stood at 30% at 1600.

In the case of `O=C(Nc1nnn[nH]1)C(Sc1ccccc1)c1ccccc1` (centres unmarked) [Compound 22, 2-phenyl-2-(phenylthio)-N-(1H-tetrazol-5-yl)acetamide], the Ki is 26.5 µM in assay [1] and 58 µM in assay [2].

`O=C(Nc1nnn[nH]1)C(Nc1ccccc1)c1ccccc1` (centres unmarked) [Compound 25, 2-phenyl-2-(phenylamino)-N-(1H-tetrazol-5-yl)acetamide]: the inhibition constant (Ki) in assay [1] was 519 µM; in assay [2] it was 652 µM. Further, the inhibition at 5000 µM in assay [3] turned out to be 40%.

With `O=C(Nc1nnn[nH]1)c1cn(S(=O)(=O)c2cccc(C(F)(F)F)c2)c2ccccc12` [Compound 27], the inhibitory constant (Ki) in assay [1] worked out at 300 µM.

For the molecule `CC(c1cccc(C(F)(F)F)c1)n1cc(C(=O)Nc2nnn[nH]2)c2ccccc21` (centres unmarked) [Compound 29], the “CTX-M14 % inhibition at stated concentration” value in assay [4] (at 1900 (uM)) was 50% at 1900. Also, the “KPC-2 % inhibition” value in assay [1] (at 1900 (uM)) is listed as 50% at 1900.

Consider `O=C(Nc1nnn[nH]1)c1c[nH]c2ccccc12` [Compound 30], for which the Ki in assay [1] came to 3000 µM; in assay [2] it was 354 µM.

On to `CC1(C(=O)Nc2nnn[nH]2)CN(C(=O)c2cccc(C(F)(F)F)c2)c2ccccc21` (centres unmarked) [Compound 31], for which the Ki in assay [1] was 354 µM; in assay [2] it was 200 µM.

`CC(=O)N1CC(C)(C(=O)Nc2nnn[nH]2)c2ccccc21` (centres unmarked) [Compound 32]: in assay [4] (at 4800 (uM)), the “CTX-M14 % inhibition at stated concentration” value came out at 10% at 4800. Also, the “KPC-2 % inhibition” value in assay [1] (at 4800 (uM)) was 40% at 4800. In assay [2], this molecule registered a Ki of 156 µM. Further, in assay [3], the inhibition at 3900 µM was 16%.

Turning to `CC1(C(=O)Nc2nnn[nH]2)CN(S(C)(=O)=O)c2ccccc21` (centres unmarked) [Compound 33], the Ki in assay [1] was 2700 µM; in assay [2], 161 µM. Moreover, the inhibition at 3900 µM in assay [3] turned out to be 20%.

The molecule `O=C(Nc1nc(C(=O)Nc2nnn[nH]2)c(-c2ccccc2)s1)c1ncc[nH]1.O=CO` [Compound 34] yielded a Ki in assay [1] of 111 µM. In assay [2] (at 1000 (uM)), the “NDM-1 % inhibition at stated concentration” value (shortened to “NDM-1 % inhibition”) is reported as 20% at 1000. For the same molecule, in assay [3], the inhibition at 1600 µM came to 35%.

As to `O=C(Nc1nc(C(=O)Nc2nnn[nH]2)c(-c2ccccc2)s1)c1ncco1` [Compound 35], in assay [3], the inhibition at 800 µM was 20%.

Turning to `O=C(Nc1nnn[nH]1)[C@@H]1CCN(C(=O)c2cccc(C(F)(F)F)c2)C1` [Compound 36], the Ki turned out to be 2980 µM in assay [4], 2000 µM in assay [1] and 48 µM in assay [2].

On to `O=C(Nc1nnn[nH]1)[C@@H]1CCN(S(=O)(=O)c2cccc(C(F)(F)F)c2)C1` [Compound 37], for which the Ki was 1000 µM in assay [4] and 470 µM in assay [1]. Besides, the “NDM-1 % inhibition” value in assay [2] (at 1800 (uM)) turned out to be 30% at 1800.

For the molecule `O=C(Nc1nnn[nH]1)[C@H]1CCN(C(=O)c2cccc(C(F)(F)F)c2)C1` [Compound 38], the figures for the Ki in assay [4] and in assay [1] were 3000 µM and 2000 µM, respectively. Also, the “NDM-1 % inhibition” value in assay [2] (at 3500 (uM)) was 40% at 3500.

Regarding `O=C(Nc1nnn[nH]1)[C@H]1CCN(S(=O)(=O)c2cccc(C(F)(F)F)c2)C1` [Compound 39], the values for the Ki in assay [4] and in assay [1] were 2000 µM and 1500 µM, respectively. Further, the “NDM-1 % inhibition” value in assay [2] (at 1800 (uM)) came out at 10% at 1800.

`O=C(Nc1nnn[nH]1)[C@@H]1CCCN(C(=O)c2cccc(C(F)(F)F)c2)C1` [Compound 40] had a Ki in assay [1] of 110 µM. In addition, the “NDM-1 % inhibition” value in assay [2] (at 1000 (uM)) turned out to be 20% at 1000. Further, the inhibition at 4800 µM in assay [3] was 35%.

For the molecule `O=C(CNc1ccccc1)Nc1nnn[nH]1` [Compound 42], the Ki in assay [1] came to 1200 µM.

For the molecule `C[C@@H](O)[C@H]1C(=O)N2C(C(=O)O)=C(SCCN=CN)C[C@H]12` [Imipenem, imipenem], in assay [6], the MIC (usually the least concentration at which growth counts as inhibited) came to 2 µg/mL.
